In publication PMC6892925, “Development of Novel Silyl Cyanocinnamic Acid Derivatives as Metabolic Plasticity Inhibitors for Cancer Treatment” (Scientific Reports, 2019):

Legend:
[1] = test system: MCF7, 4T1, WiDr, and MDA-MB-231 cell lines; assay: MTT cell proliferation inhibition, all cell lines tested; format: cell-based; details: read-out: MTT IC50 values, span over all the cell lines tested
Protocol: Cell proliferation inhibition was evaluated using 3-(4,5-dimethylthiazol-2-yl)-2,5-diphenyl tetrazolium bromide (MTT) assay as reported previously[19].

[2] = biological target: T1, MCT1 (Rattus norvegicus, UniProt P53987); assay: MCT1 inhibition assay via L-[14C]-lactate uptake in RBE4 cells; format: cell-based; details: L-[14C]-lactate uptake, MCT1 expressing RBE4 cell line; average ± SEM of three separate experiments; read-out: MCT1 IC50
T1 construct: using an L-[^14C]-lactate study on the MCT1 expressing RBE4 cell line; endogenous in cells; host or cells: RBE4 (rat brain endothelial 4) cells, a gift from F. Roux
T1 sequence (P53987 1-494): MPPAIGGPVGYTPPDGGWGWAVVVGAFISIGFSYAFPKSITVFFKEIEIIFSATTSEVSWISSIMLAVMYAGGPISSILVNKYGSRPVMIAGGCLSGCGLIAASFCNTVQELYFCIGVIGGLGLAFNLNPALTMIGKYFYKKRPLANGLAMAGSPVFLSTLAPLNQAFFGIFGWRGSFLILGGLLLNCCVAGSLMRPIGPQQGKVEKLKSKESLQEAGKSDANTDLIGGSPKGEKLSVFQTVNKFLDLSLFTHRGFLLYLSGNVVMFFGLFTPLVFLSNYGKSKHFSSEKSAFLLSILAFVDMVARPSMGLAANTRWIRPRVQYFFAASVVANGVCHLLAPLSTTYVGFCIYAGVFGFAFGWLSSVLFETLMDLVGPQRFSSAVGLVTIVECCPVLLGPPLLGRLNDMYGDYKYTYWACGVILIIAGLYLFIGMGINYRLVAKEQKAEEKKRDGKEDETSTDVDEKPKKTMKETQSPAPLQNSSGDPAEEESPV

[3] = test system: MCT1 expressing WiDr tumor xenograft; assay: In vivo tumor growth inhibition study, WiDr tumor xenograft; set-up: species or system mouse; details: 25 mg/kg i.p., 16 days; for tumor growth suppression: vs control group
Protocol: Based on in vitro cell proliferation inhibition, MCT1 inhibition, and effects on glycolysis/mitochondrial function, we advanced candidate compounds 2a and 2b for translational in vivo safety and efficacy studies. […] Next, an MCT1 expressing WiDr tumor xenograft model was chosen to evaluate the efficacy of 2a and 2b. After tumors were inoculated, they were allowed to reach ~150 mm^3 volume, and mice were randomly divided into three groups. Group-1 was administered 25 mg/kg (i.p.) of compound 2a, group-2 was administered with 25 mg/kg (i.p.) of 2b, and group-3 was designated as control group and given an injection of vehicle. Treatment was continued for 16 days, and tumor volumes were recorded. […] During the two-week treatment period, there was no significant loss of body weights in mice between treated and control groups. […] At the end of the study, all the tumors were resected, and the tumor mass was weighed (Fig. 6D).
WiDr cells (5 × 10^6 cells) were suspended in 1:1 mixture of matrigel (Corning, cat. no. 356237) and PBS and injected subcutaneously into the right flank of female athymic nude mice (Charles River). The mice were randomly assigned into 3 groups (n = 6 mice per group). Vertical and horizontal diameters of tumors were measured every two- or three-days using calipers. The tumor volumes were calculated assuming a perfect sphere using the formula V = ab^2/2 where ‘a’ is the longer diameter of the tumor and ‘b’ is the shorter diameter of the tumor. Treatment was initiated when the tumor volume reached 100 mm^3. The study was terminated after sixteen days and tumors were then resected and weighed. All procedures performed using this method were approved by the University of Minnesota Institutional Animal Care and Use Committee (IACUC, protocol no. 1612-34444A) and are in accordance with all guidelines and regulations.

[4] = test system: MCT4 expressing MDA-MB-231 cell line; assay: Seahorse XFe96 glycolysis stress test (ECAR); format: cell-based, human; details: 30 µM, MDA-MB-231, vs DMSO control
Protocol: (§1) Candidate compounds 2a and 2b were evaluated for their effect on glycolysis, glycolytic capacity and glycolytic reserve. This assay measures extracellular acidification rate (ECAR) which is directly correlated with the rate of glycolysis. The ECAR for both cell lines in the presence of the test compounds can be seen above (Fig. 4B,C). In this assay, cells were initially starved of glucose to reduce their ECAR. Upon addition of glucose, a rise in ECAR was observed proportional to the rate of glycolysis in each cell line. An increase in basal levels of glycolysis in cells treated with test compounds compared to the controls represents a shift toward dependency on glycolysis for ATP production. […] Glycolytic capacity is the maximum rate of glycolysis the cell can attain in the absence of OxPhos as an ATP source.
(§2) 20,000 cells/well were plated in 96-well Seahorse plates (Agilent, part no. 101085-004) and incubated 16–24 hours at 37 °C at 5% CO2. Flux pack sensors (Agilent, part no. 102416-100) were hydrated with XF calibrant solution (Agilent, part no. 100840-000) overnight at 37 °C in a non-CO2 incubator. The serum free assay media was prepared from Seahorse base medium (Agilent, part no. 102353-100) enriched with glutamine (1 mM) and sodium pyruvate (1 mM). The pH of the media was adjusted to 7.4. For glycolysis stress test the serum free assay media was used. For the mitochondrial stress test glucose (10 mM) was added to make an enriched serum free assay media. For both stress tests an 8X stock concentration of test compounds in their respective media was prepared for microplate injections in port A. Stock solutions of glucose (90 mM), oligomycin (10 μM), and 2-deoxyglucose (Chem Impex, 550 mM) were prepared such that their final working concentrations are 10 mM, 1 μM and 50 mM, respectively, for glycolysis stress test. For mitochondrial stress test, stock solutions of oligomycin (9 µM), FCCP (2.5–10 µM, cell line dependent), rotenone + antimycin A (5.5 µM) were prepared such that their final concentrations were 1 µM, 0.25–1 µM, and 0.5 µM, respectively in the enriched test media. Under glycolytic stress test, the cells were treated with test compounds, followed by the addition of glucose, oligomycin and 2-deoxyglucose at 14.29, 33.8, 53.35, 72.87 minutes, respectively. Under mitochondrial stress test, cells were treated with test compounds, followed by the addition of oligomycin, FCCP, and rotenone + antimycin A, at 14.29, 33.8, 53.35, 72.87 minutes, respectively. Extracellular acidification rates (ECAR) and oxygen consumption rates (OCR) were recorded in real-time for glycolysis and mitochondrial stress tests, respectively, using a Seahorse XFe96® analyzer (Agilent). The parameters related to glycolytic and mitochondrial functions were calculated utilizing the Wave 2.4.0 software (Agilent). ATP rate assay experiment was performed using manufactures (Agilent) protocol, and respective mitochondrial and glycolytic ATP rates were normalized to protein (BCA assay) and calculated using Wave 2.4.0 software.

[5] = test system: MCT1 expressing WiDr cell line; assay: Seahorse XFe96 glycolysis stress test (ECAR); format: cell-based, human; details: 30 µM, vs DMSO control
Protocol: as §1, §2

Structure (SMILES): CC(C)(C)[Si](Oc1ccc(/C=C(\C#N)C(=O)O)cc1)(c1ccccc1)c1ccccc1 [2a]
- IC50 [1]: 6 to 93 µM
- IC50 [2]: 0.408 ± 0.005 µM
- tumor volume vs control group [3]: significant suppression in tumor volume
- tumor growth suppression [3]: 36%
- basal glycolysis (ECAR) [4]: significantly increased
- glycolytic capacity (ECAR) [4]: significantly reduced
- glycolytic reserve (ECAR) [4]: significant decrease
- basal glycolysis (ECAR) [5]: significantly increased
- glycolytic reserve (ECAR) [5]: significant decrease

Structure (SMILES): CC(C)(C)[Si](OCCOc1ccc(/C=C(\C#N)C(=O)O)cc1)(c1ccccc1)c1ccccc1 [2b]
- IC50 [1]: 6 to 93 µM
- IC50 [2]: 0.097 ± 0.007 µM
- tumor growth suppression [3]: 28%
- basal glycolysis (ECAR) [4]: significantly increased
- glycolytic capacity (ECAR) [4]: significantly reduced
- glycolytic reserve (ECAR) [4]: significant decrease
- basal glycolysis (ECAR) [5]: significantly increased
- glycolytic reserve (ECAR) [5]: significant decrease
